Where “and” joins values, the source holds several entries; their conditions need not be identical. Equal values may be shown once. Calls of active or inactive are those of the source.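 Rule for the calls: active = compounds giving half or more protection of infected cells from virus-caused growth loss, again on retest; inactive = the rest.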
Tested on: CEM cells HIV-1 protection, formazan growth assay
Assay: NCI AIDS Antiviral Assay
Details: for IC50: measured here: growth of uninfected CEM cells
In short: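 CEM (human) cells, HIV-1 infected vs uninfected, 5-point dosing, formazan growth read-out. Retest threshold 50% protection.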

O=S(=O)(C1CCCCC1)N1N=NC2CCCCC21 (centres undefined)
EC50: > 200 µM
IC50: > 200 µM

CC1CCC2(CC1)CC(=O)N(N1CCOCC1)C(=O)C2
EC50: > 200 µM
IC50: > 200 µM

COc1cc(Nc2cnc3ccc(N)cc3n2)cc(OC)c1OC
EC50: > 550 µM

CC(=O)OC1(Sc2ccccc2)CC2[C@H]3COC(C)(C)O[C@H]3CC[C@@]2(C)CC1=O (some centres undefined)
outcome: inactive

CC1CC/C(=C\c2ccc(F)cc2)C2=C1C(c1ccc(F)cc1)n1c(s/c(=C/c3cccc(Br)c3)c1=O)=N2 (centres undefined)
outcome: inactive

O=[N+]([O-])C(C(Cl)=C(Cl)Cl)=C(N(Cc1ccccc1)Cc1ccccc1)N(Cc1ccccc1)Cc1ccccc1
EC50: > 0.2 µM
IC50: > 0.2 µM

Cc1cc(O)c2c(c1)C[C@@H](O)C1=C2C(=O)c2c(O)ccc(OC3CC(O)C(OC4CC(OC5CCC(OC6CC(O)C(OC7CC(OC8CCC(O)C(C)O8)C(O)C(C)O7)C(C)O6)C(C)O5)C(O)C(C)O4)C(C)O3)c2C1=O (some centres undefined)
EC50: > 43.7 µM
IC50: 0.2 µM

C/C(=N/N)c1ccc2[nH]c3c(C)cc([N+](=O)[O-])c(C)c3c2c1
EC50: > 24.5 µM
IC50: 4.9 µM

CC1=C(C(=O)Nc2ccc([N+](=O)[O-])cc2)C(c2ccco2)C(C(=O)Nc2ccc([N+](=O)[O-])cc2)=C(C)N1
EC50: > 19.5 µM
IC50: 11 µM

O=Cc1ccccc1CCn1c(=O)c2cc3c(=O)n(CCc4ccccc4C=O)c(=O)c3cc2c1=O
EC50: > 10.7 µM
IC50: > 10.7 µM

C[C@@H]1C(N2CCCC2)=CC(=O)OC1c1ccccc1 (some centres undefined)
EC50: > 200 µM
IC50: > 200 µM

C=C1CN(S(=O)(=O)c2ccc(C)cc2)CCCN(Cc2ccccn2)CCCN(S(=O)(=O)c2ccc(C)cc2)C1
EC50: > 200 µM
IC50: > 200 µM

COc1cccc2c1ccc1nonc12
EC50: > 129 µM
IC50: > 129 µM

Nc1ccc(C(=O)NN2C(=O)C(Cl)C2c2ccccc2O)cc1 (centres undefined)
EC50: > 200 µM
IC50: 29.5 µM

N#Cc1c(-c2ccco2)cc(-c2ccc(N)cc2)[nH]c1=O
EC50: > 25.7 µM
IC50: > 25.7 µM

CCC/C(=N\NC(=S)N1CC2CCC(CC2)C1)c1ccccn1
EC50: > 6.76 µM
IC50: 0.148 µM

COc1cc(CNc2nc3c(NC(C)=O)cc(C(F)(F)F)cc3nc2-c2ccccc2)cc(OC)c1OC
EC50: > 13.8 µM
IC50: 11.7 µM

COc1ccc(C2C(C#N)=C(S)N(C3OC(COC(C)=O)C(OC(C)=O)C(OC(C)=O)C3OC(C)=O)C(c3ccccc3)=C2C(C)=O)cc1 (centres undefined)
EC50: > 200 µM
IC50: 25.1 µM

CCCCCC=C(c1cc(Cl)c(OC)c(C(=O)OC)c1)c1cc(Cl)c(OC)c(C(=O)OC)c1
EC50: 17.8 µM
IC50: 28.8 µM

CCOC(=O)[C@H]1Nc2ccc(OC)cc2C2c3ccccc3CC21 (some centres undefined)
EC50: > 57.5 µM
IC50: > 57.5 µM

Cc1ccc2c(c1)SC(c1cc3c(cc1Br)OCO3)S2 (centres undefined)
EC50: > 50.1 µM
IC50: > 50.1 µM

Clc1c(Cl)c2c(Cl)c(Cl)c1C[P+](c1ccccc1)(c1ccccc1)CC[P+](c1ccccc1)(c1ccccc1)Cc1c(Cl)c(Cl)c(c(Cl)c1Cl)C[P+](c1ccccc1)(c1ccccc1)CC[P+](c1ccccc1)(c1ccccc1)C2
EC50: > 66.1 µM
IC50: 4.68 µM

Cc1cc(Cl)ccc1N1C(=O)C(=O)C(c2nc3ccccc3o2)C(=O)C1=O
outcome: inactive

C=CC1(C)CCC2C(=CCC3C(C)(COC4OC(CO)C(O)C(O)C4O)C(O)CCC23C)C1 (centres undefined)
EC50: > 200 µM
IC50: > 100 µM

c1ccc(CN2COc3c(ccc4ccccc34)C2)cc1
EC50: > 200 µM
IC50: 55 µM

O=[N+]([O-])c1cccc(S(=O)(=O)c2ccc(F)c([N+](=O)[O-])c2)c1
EC50: > 200 µM
IC50: 0.501 µM

Cn1nc(-c2ccc3c(c2)OCO3)[n+]([O-])c2c(=O)n(C)c(=O)nc1-2
EC50: > 200 µM
IC50: 0.38 µM

O=C(O)c1ccc2c(n1)-c1nc3nc4c(cc3cc1CC2)CCc1ccc(C(=O)O)nc1-4
EC50: > 200 µM
IC50: 21.9 µM

CC(=O)c1sc2c(c1OC(=O)c1cccs1)c(=O)n(-c1ccccc1)c(=S)n2-c1ccccc1
EC50: > 200 µM
IC50: 3.8 µM

COC1OC(C(=O)O)C2OC(C)(C)OC12 (centres undefined)
EC50: > 200 µM
IC50: > 200 µM

C/C1=C\C(=O)OC2CC(CCC(C)/C=C/CC1)OC(O)(C1CSC(=O)N1)C2 (centres undefined)
EC50: > 129 µM
IC50: 3.98 µM

C1=CC2CCC1CN2CCC1CNc2ccccc21 (centres undefined)
outcome: inactive

CCN1C(=O)c2ccccc2C1(O)c1ccc(Cl)cc1 (centres undefined)
EC50: > 200 µM
IC50: 151 µM

C[N+](C)(C)CC1CCC/C1=N\OC(=O)c1ccccc1 (centres undefined)
EC50: > 617 µM
IC50: > 617 µM

CC(=O)n1nc(-c2[nH]c(C)c(-c3nn(C(C)=O)c(=S)o3)c2C)oc1=S
EC50: > 50.1 µM
IC50: > 50.1 µM

C=C1C(=O)OC2/C=C(\C=O)CC/C=C(\C)C(O)C[C@@H]12 (some centres undefined)
EC50: > 200 µM
IC50: 2.95 µM

COc1cc([C@H]2Oc3c(OC)cc(/C=C/C(=O)O)cc3[C@@H]2C(=O)O)ccc1O
EC50: 120 µM
IC50: > 200 µM

CCOc1ccc(NC(=O)C2=C(C)NC(C)=C(C(=O)Nc3ccc(OCC)cc3)C2c2ccc([N+](=O)[O-])cc2)cc1
EC50: > 12.9 µM
IC50: > 12.9 µM

CCn1c(=O)c(N=O)c(N)n(CCCO)c1=O
EC50: > 200 µM
IC50: > 200 µM

Cc1cc(NS(=O)(=O)c2ccc(NC(=O)c3cccc4c(Nc5ccc(S(=O)(=O)N=C(N)N)cc5)c5ccccc5nc34)cc2)no1
EC50: 52.5 µM
IC50: 53.7 µM

COc1ccccc1C1SCC(=O)N1c1ccc(-n2c(-c3ccccc3)nc3ccccc3c2=O)cc1 (centres undefined)
EC50: > 200 µM
IC50: 135 µM

CC(C)(C)NC(=O)C12C3C4C1C1C2C3C41C(=O)NC(C)(C)C (centres undefined)
outcome: inactive

C=C1N2[C@@H](CO)[C@H](c3ccccc3)O[C@]2(C)CC[C@]1(C)Cc1ccccc1
EC50: > 200 µM
IC50: 83.2 µM

C/C(=C\CO)CCC1=C(C=O)C[C@H](OC2OCC(O)C(O)C2O)C2[C@@](C)(CO)CCC[C@]12C (some centres undefined)
EC50: > 263 µM
IC50: > 263 µM

O=C1C=CC=C/C1=C1\N=C(c2ccccc2OCC(=O)c2ccc(Br)cc2)SS1
EC50: > 50.1 µM
IC50: 19.5 µM

O=c1c(-c2ccccc2)c2oc(c1-c1ccccc1)CS(=O)(=O)CCC2
EC50: > 97.7 µM
IC50: 18.6 µM

CC(C)[Si]1(C(C)C)OCC2OC(n3cnc4c(N)ncnc43)C(N)C2O[Si](C(C)C)(C(C)C)O1 (centres undefined)
EC50: > 200 µM
IC50: 8.51 µM

CC(C)CCCC(C)[C@H]1CC[C@H]2[C@@H]3CC[C@H]4C[C@@H](CCC=C(c5cc(Cl)c(OCc6ccc(CC(=O)O)cc6)c(C(=O)O)c5)c5cc(Cl)c(OCc6ccc(CC(=O)O)cc6)c(C(=O)O)c5)CC[C@]4(C)[C@H]3CC[C@]12C (some centres undefined)
EC50: 1.7 µM and 1.41 µM
IC50: 115 µM and 20 µM

CCOc1ccc(N=NC2C(=O)N(C(=O)CC(=O)Nc3ccccc3)N=C2C)cc1 (centres undefined)
EC50: > 200 µM
IC50: 20.4 µM

CSC1=Nc2ccccc2N=C(c2ccccc2)C1
EC50: > 26.9 µM
IC50: > 26.9 µM

CC(C)=CCC/C(C)=C/CC/C(C)=C/C1CCC(=O)C1(C)C (centres undefined)
EC50: > 85.1 µM
IC50: 41.7 µM

COc1cccc(/C=C2\C(=O)N(C(=O)Cc3ccccc3)N=C2C)c1
EC50: > 15.5 µM
IC50: > 15.5 µM

COc1ccc(/C=C2N=C(/C=C/c3ccccc3)OC\2=O)cc1OC
EC50: 11 µM
IC50: 97.7 µM

Oc1ccccc1C1SC(c2ccccc2O)SC(c2ccccc2O)S1 (centres undefined)
EC50: > 200 µM
IC50: 11.5 µM

COc1ccc(/C(=C\c2cc(OC)c(OC)cc2[N+](=O)[O-])C(=O)O)cc1
outcome: inactive

NNC(=O)C(=O)N/N=C(/CCC(=O)NCCc1ccccc1)CC(=O)c1ccccc1
outcome: inactive

OCC(O)C(Cl)CCl (centres undefined)
EC50: > 200 µM
IC50: > 200 µM

COc1c(OC2OC(CO)C(O)C(O)C2O)cc2c(c1OC)-c1ccc(SC)c(=O)cc1[C@@H](NC(C)=O)CC2 (some centres undefined)
outcome: inactive

COc1ccc(/C=C(/C(=O)c2ccc(Cl)cc2)N2C=CC=CC2=C(C#N)C#N)cc1OC
EC50: > 20 µM
IC50: 0.117 µM

CCOC(=O)N1CCc2cc(OC)c(OC)cc2/C1=C\c1ccc(OC)c(OC)c1
outcome: inactive

COc1c(C=O)c2c(c(OC)c1OC)-c1ccc(OC)c(=O)cc1[C@@H](NC(C)=O)CC2
EC50: > 0.2 µM
IC50: 0.011 µM

Nc1ccc(S(=O)(=O)Nc2nc3ccccc3nc2N2CCCCCC2)cc1
EC50: > 200 µM
IC50: 33.1 µM

C=C(C)C(CC=C(C)C)CC12CC(CC=C(C)C)C(C)(C)C(CC=C(C)C)(C(=O)C(Cc3ccc(O)c(O)c3)=C1O)C2=O (centres undefined)
EC50: > 200 µM
IC50: 158 µM

C[N+](C)(C)CC(=O)N/N=C(/C=C/c1ccccc1)CC1OC(=O)c2ccccc21 (centres undefined)
EC50: > 589 µM
IC50: > 589 µM

CC1=NS(=O)(=O)c2cc(Cl)ccc2N1
EC50: > 562 µM
IC50: > 407 µM and 537 µM

COc1ccc(-c2cn3ccsc3n2)cc1
EC50: > 195 µM
IC50: 162 µM

CC(=O)NC(CCCCNC(=O)NCCCl)C(=O)NCc1ccccc1 (centres undefined)
EC50: > 646 µM
IC50: > 646 µM

CC(=O)N(CN1C(=O)CCC1C(=O)O)c1ccccc1Cl (centres undefined)
outcome: inactive

CCN1C[C@]2(C)CC[C@H](O)C34C1C(C[C@@H]32)[C@@]1(O)CC[C@H]2C[C@@H]4[C@@H]1[C@H]2O
outcome: inactive

CCC1=NS(=O)(=O)c2c(ncn2C)N1
EC50: > 1150 µM
IC50: > 1150 µM

COc1ccc(/C=C2\CCCC(CN(C)C)C2=O)cc1 (centres undefined)
EC50: > 200 µM
IC50: 1.02 µM

COC(=O)c1ccccc1C1CN=NC12Cc1cc(C)cc(C)c1C2=O (centres undefined)
outcome: inactive

O=C1C[N+]2(Cc3ccccc3)CCC1CC2
EC50: > 851 µM
IC50: > 851 µM

Cc1nnc2n1N=C(c1ccc(-c3ccc([N+](=O)[O-])cc3)o1)CS2
EC50: > 5.89 µM
IC50: > 5.89 µM

O=C(CC1C(=O)Nc2ccccc2S1=O)Nc1cccc(Cl)c1 (centres undefined)
EC50: > 20.9 µM
IC50: > 20.9 µM

O=c1cn[nH]c2ccc(F)cc12
EC50: > 219 µM
IC50: > 219 µM

COc1cc2c(cc1OC)NCC1COc3c(ccc(OC)c3OC)C1=N2 (centres undefined)
EC50: > 200 µM
IC50: 117 µM

C=CC[C@@]12CC(C=CC13OCCO3)OC(O)[C@@H]2C (some centres undefined)
EC50: > 200 µM
IC50: 145 µM

O=S(=O)(OC=C1CCCCC1)C(F)(F)F
EC50: > 107 µM
IC50: > 107 µM

O=C(O)Cc1ccc(SSc2ccc(CC(=O)O)cc2)cc1
EC50: 46.8 µM and 129 µM
IC50: 1120 µM and > 200 µM

CCOC(=O)C1=C(NNC(=O)Cc2ccccc2)CSC1=Nc1ccccc1
EC50: > 18.2 µM
IC50: > 18.2 µM

Source: PubChem BioAssay AID179 (DTP/NCI, 2004)
